Data reported in ChEMBL document CHEMBL1201862, “PubChem BioAssay data set” (2004).
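Following 48 hours of exposure in 96-well plates, responses at five concentrations were used to interpolate endpoints linearly. Abbreviation: GI50, concentration required for 50% inhibition of growth.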 Active and inactive are the calls of the source. Cut-off read from the data, not from the text of the source: active = GI50 up to about 1.1 µM and inactive = higher.

How the values were obtained:
Experiment in all cases: DTP human tumour cell line panel, 48 h
SN12C = tested on: SN12C
KM12 = tested on: KM12
OVCAR-3 = tested on: OVCAR-3
HL-60 = tested on: HL-60
Malme-3M = tested on: Malme-3M
OVCAR-4 = tested on: OVCAR-4
SK-OV-3 = tested on: SK-OV-3
COLO 205 = tested on: COLO 205
HOP-92 = tested on: HOP-92
RPMI-8226 = tested on: RPMI-8226
ACHN = tested on: ACHN
A498 = tested on: A498
MOLT-4 = tested on: MOLT-4
A549 = tested on: A549
SNB-19 = tested on: SNB-19
NCI-H23 = tested on: NCI-H23
SF-539 = tested on: SF-539
SR = tested on: SR
HCT-15 = tested on: HCT-15

SMILES | GI50 (SN12C) | GI50 (KM12) | GI50 (OVCAR-3) | GI50 (HL-60) | GI50 (Malme-3M) | GI50 (OVCAR-4) | GI50 (SK-OV-3) | GI50 (COLO 205) | GI50 (HOP-92) | GI50 (RPMI-8226) | GI50 (ACHN) | GI50 (A498) | GI50 (MOLT-4) | GI50 (A549) | GI50 (SNB-19) | GI50 (NCI-H23) | GI50 (SF-539) | GI50 (SR) | GI50 (HCT-15) [µM]
CC1=C(C(=O)Nc2ccc([N+](=O)[O-])cc2)C(c2ccccc2O)C(C(=O)Nc2ccc([N+](=O)[O-])cc2)=C(C)N1 | 19.6 µM (inactive) | 20.2 µM (inactive) | 20.5 µM (inactive) | 19.2 µM (inactive) | 21.8 µM (inactive) | 23.7 µM (inactive) | 21.1 µM (inactive) | 17.5 µM (inactive) | 11.7 µM (inactive) | 17.6 µM (inactive) | 13.8 µM (inactive) | 20.1 µM (inactive) | 15.2 µM (inactive) | 28.2 µM (inactive) | 37.2 µM (inactive) | 18.6 µM (inactive) | 22.1 µM (inactive) |  | 
Cc1cc(C)c(C(=O)O)c(N)c1O | > 100 µM (inactive) | > 100 µM (inactive) | > 100 µM (inactive) | > 100 µM (inactive) | > 100 µM (inactive) | > 100 µM (inactive) | > 100 µM (inactive) | > 100 µM (inactive) |  | > 100 µM (inactive) | > 100 µM (inactive) | > 100 µM (inactive) | > 100 µM (inactive) | > 100 µM (inactive) | > 100 µM (inactive) | > 100 µM (inactive) |  | > 100 µM (inactive) | > 100
CCOC(=O)/C(C#N)=C/c1[nH]c(C)c(C)c1C | > 100 µM (inactive) | > 100 µM (inactive) | > 100 µM (inactive) | > 100 µM (inactive) | > 100 µM (inactive) | > 100 µM (inactive) | > 100 µM (inactive) | > 100 µM (inactive) | > 100 µM (inactive) | > 100 µM (inactive) |  | > 100 µM (inactive) | > 100 µM (inactive) | > 100 µM (inactive) | > 100 µM (inactive) | > 100 µM (inactive) | > 100 µM (inactive) |  | > 100
NNC(=O)N/N=C1\CN(c2ccc(Cl)cc2Cl)C(=O)C(=O)C1c1nc2ccccc2o1 (stereo unspecified) | > 100 µM (inactive) | > 100 µM (inactive) | > 100 µM (inactive) |  | > 100 µM (inactive) | > 100 µM (inactive) | > 100 µM (inactive) | > 100 µM (inactive) | > 100 µM (inactive) | > 100 µM (inactive) | > 100 µM (inactive) | > 100 µM (inactive) | > 100 µM (inactive) | > 100 µM (inactive) | > 100 µM (inactive) | 85.5 µM (inactive) | > 100 µM (inactive) | > 100 µM (inactive) | 
CCOC(=O)C1C(=O)c2ccccc2CN1Cc1ccccc1 (stereo unspecified) | > 100 µM (inactive) | > 100 µM (inactive) | > 100 µM (inactive) | > 100 µM (inactive) | > 100 µM (inactive) | > 100 µM (inactive) | > 100 µM (inactive) | > 100 µM (inactive) | > 100 µM (inactive) | > 100 µM (inactive) | > 100 µM (inactive) |  | > 100 µM (inactive) | > 100 µM (inactive) | > 100 µM (inactive) | > 100 µM (inactive) | > 100 µM (inactive) | > 100 µM (inactive) | > 100
COc1ccc2c3c(c(C(=O)O)oc13)C(CCC(=O)O)CC2 (stereo unspecified) | > 100 µM (inactive) |  | > 100 µM (inactive) |  |  | > 100 µM (inactive) | > 100 µM (inactive) | > 100 µM (inactive) | > 100 µM (inactive) |  | > 100 µM (inactive) | > 100 µM (inactive) |  | > 100 µM (inactive) | > 100 µM (inactive) | > 100 µM (inactive) | > 100 µM (inactive) |  | > 100
COc1cc(C(=O)N2CCc3c([nH]c4c([N+](=O)[O-])c(OC)ccc34)C2C)cc(OC)c1OC (stereo unspecified) | > 100 µM (inactive) | > 100 µM (inactive) | > 100 µM (inactive) | > 100 µM (inactive) |  | > 100 µM (inactive) |  | > 100 µM (inactive) |  | > 100 µM (inactive) | > 100 µM (inactive) | > 100 µM (inactive) | > 100 µM (inactive) | > 100 µM (inactive) | > 100 µM (inactive) | > 100 µM (inactive) | 89.1 µM (inactive) | > 100 µM (inactive) | > 100
CCCCCCCCSC(=O)NCCCC | 33 µM (inactive) | 51.8 µM (inactive) | 41.3 µM (inactive) | 18.7 µM (inactive) | 24.5 µM (inactive) | 33.5 µM (inactive) | > 100 µM (inactive) | 54.6 µM (inactive) | 14.4 µM (inactive) | 20.3 µM (inactive) | 34.7 µM (inactive) | 54.1 µM (inactive) | 23.2 µM (inactive) | 38.2 µM (inactive) | 34.6 µM (inactive) | 49.7 µM (inactive) | 74 µM (inactive) |  | 27.2
CCCCCCCCCCCCCC(=O)OC1CC(=O)OC1CO (stereo unspecified) | > 100 µM (inactive) | 22.9 µM (inactive) | 33.6 µM (inactive) | 23 µM (inactive) | > 100 µM (inactive) | > 100 µM (inactive) | > 100 µM (inactive) | > 100 µM (inactive) | 17 µM (inactive) | 36.5 µM (inactive) | 46 µM (inactive) | 77.6 µM (inactive) | 25.1 µM (inactive) | 55.1 µM (inactive) | 32.8 µM (inactive) |  | > 100 µM (inactive) |  | 18.5
COc1cc([C@@H]2c3cc4c(cc3[C@@H](NCc3ccc(C#N)cc3)C3COC(=O)[C@@H]32)OCO4)cc(OC)c1O (stereo partly specified) | 0.414 µM (active) | 1.4 µM (inactive) | 2.16 µM (inactive) | 0.116 µM (active) | 1.01 µM (active) | 20.8 µM (inactive) | 0.989 µM (active) | 0.948 µM (active) | 1.88 µM (inactive) | 0.993 µM (active) | 0.272 µM (active) | 1.07 µM (active) | 0.0512 µM (active) | 0.0923 µM (active) | 0.621 µM (active) | 0.317 µM (active) | 0.877 µM (active) |  | 1.16
O=C(O)CSC(NC(=O)C(C(F)(F)F)C(F)(F)F)(C(F)(F)F)C(F)(F)F | > 100 µM (inactive) |  |  | > 100 µM (inactive) |  |  | > 100 µM (inactive) | > 100 µM (inactive) |  | > 100 µM (inactive) | > 100 µM (inactive) | 71 µM (inactive) | > 100 µM (inactive) | > 100 µM (inactive) | > 100 µM (inactive) | > 100 µM (inactive) | > 100 µM (inactive) | > 100 µM (inactive) | > 100
CC1=C(C(=O)Nc2ccc(C)cc2)C(c2cccc([N+](=O)[O-])c2)C(C(=O)Nc2ccc(C)cc2)=C(C)N1 | 20.9 µM (inactive) | 15.6 µM (inactive) | 20 µM (inactive) | 16.1 µM (inactive) | 28.2 µM (inactive) | 12.2 µM (inactive) | 55.2 µM (inactive) | 14.1 µM (inactive) |  |  | 18.8 µM (inactive) | 16.4 µM (inactive) | 5.55 µM (inactive) | 26.2 µM (inactive) | 28.1 µM (inactive) | 25.2 µM (inactive) | 19 µM (inactive) | 21.2 µM (inactive) | 26.2
COc1ccc(OC)c(-c2cc(O)c3cc4c(cc3n2)OCO4)c1 | 6.79 µM (inactive) | 3.86 µM (inactive) | 3.93 µM (inactive) | 2.96 µM (inactive) | 3.49 µM (inactive) | 35.6 µM (inactive) | 3.49 µM (inactive) | 2.65 µM (inactive) | 3.54 µM (inactive) | 4.18 µM (inactive) | 6.58 µM (inactive) |  | 6.34 µM (inactive) | 5.87 µM (inactive) | 18.5 µM (inactive) | 3.44 µM (inactive) | 5.7 µM (inactive) | 3.96 µM (inactive) | 4.22
NC(=O)C(=O)CC(=O)c1ccccc1NC1=CC(=O)C(=O)c2ccccc21 | 51.6 µM (inactive) | 54.3 µM (inactive) | 26.7 µM (inactive) | 22.6 µM (inactive) | 31.7 µM (inactive) | 19.2 µM (inactive) | > 100 µM (inactive) | > 100 µM (inactive) | 23.9 µM (inactive) | > 40.6 µM (inactive) | > 87.9 µM (inactive) | > 100 µM (inactive) | > 55 µM (inactive) | > 100 µM (inactive) | > 58.2 µM (inactive) | 31.2 µM (inactive) | > 100 µM (inactive) |  | > 53.5
Fc1ccc(C2SCc3nc4ccccc4n32)cc1 (stereo unspecified) | 27 µM (inactive) | 37.2 µM (inactive) | 24.4 µM (inactive) | 22.3 µM (inactive) | 25.8 µM (inactive) | 36.3 µM (inactive) | 94.6 µM (inactive) | 57 µM (inactive) | 19.9 µM (inactive) | 26.4 µM (inactive) | 34.8 µM (inactive) |  | 32.1 µM (inactive) | 45.3 µM (inactive) | 6.1 µM (inactive) | 28.9 µM (inactive) | > 100 µM (inactive) | 27 µM (inactive) | 34.8
O=C(O)/C(Cl)=C(\Cl)C(=O)Nc1ccccc1 | > 100 µM (inactive) | > 100 µM (inactive) | > 100 µM (inactive) |  | > 100 µM (inactive) | > 100 µM (inactive) | > 100 µM (inactive) | > 100 µM (inactive) | > 100 µM (inactive) | > 100 µM (inactive) | > 100 µM (inactive) | > 100 µM (inactive) | > 100 µM (inactive) | > 100 µM (inactive) | > 100 µM (inactive) | > 100 µM (inactive) | > 100 µM (inactive) | > 100 µM (inactive) | > 100
